Reference: patent US20060099568A1, “Signals and molecular species involved in senescence” (priority 2002, published 2006)

How the values were obtained:
PKC = PKC activation (aggregation and translocation of PKC-α, confocal microscopy); assay type: cell-based, human; conditions: near-senescent cells (passage 29); 30 μg/ml LPA
Experimental: FIG. 16 represents PKC activation by LPA in presenescent and near-senescent human diploid fibroblasts. Subconfluent presenescent (passage 10, Pa 10) and near-senescent (passage 29, Pa 29) fibroblasts were serum-starved for 2 days and treated with 30 μg/ml LPA for the indicated times. PKC activation was indicated by aggregation and translocation of PKC proteins into the plasma membrane. PKC-α was detected under a confocal microscopy system with polyclonal anti-PKC-α antibodies and FITC-conjugated secondary antibodies.

[1] = tested on: human diploid fibroblasts; assay: measurement of cytosolic free [Ca2+]i by confocal microscopy (fluo-3-AM); assay type: cell-based; conditions: PDGF 50 ng/ml, LPA 1 μg/ml
Experimental: FIG. 1 represents differential changes in growth factor-stimulated calcium release in senescent fibroblasts. Presenescent (passage 7: A and C) and senescent (passage 27: B and D) fibroblasts were grown on coverslips, serum-starved, and incubated with 4 μM fluo-3-AM in serum-free medium for 40 min. The stained cells were treated with […] of platelet-derived growth factor (A and B) or 1 μg/ml of lysophosphatidic acid (C and D) via a micro-perfusion system for the real-time measurement of signaling molecules, and laser scanning confocal microscopy. The scanned images were analyzed for changes in intracellular Ca^2+ at the single cell level and results expressed as relative fluorescence intensity (RFI).
[Ca^2+]i was measured using a laser scanning confocal microscope, as described by Junn et al. (2000). Quiescent fibroblasts grown on glass cover slips in a 6-well plate were stained with 4 μM of fluo-3-acetoxymethyl ester (fluo-3-AM) in phenol red-free medium without serum for 40 min and washed three times with the serum-free medium. Stained cells on each cover slip were mounted on a perfusion chamber (MPS-1000, Seoul Engineering, Korea), placed under the confocal laser scanning microscope (Carl Zeiss LSM 410), and scanned every 5 sec with a 488 nm excitation argon laser and a 515 nm long pass emission filter. Growth factors were added to the cells using an automatic pumping system (self-designed). All scanned images were analyzed for [Ca ^2+]i changes at the single cell level using “Time Series Program” for a real-time measurement of relative fluorescence intensity (RFI) which is installed in the Carl Zeiss LSM 410 confocal system.

[2] = tested on: human diploid fibroblasts; assay: confocal microscopic measurement of actin polymerization (NBD-phallacidin); assay type: cell-based; conditions: PDGF 50 ng/ml, LPA 1 μg/ml
Experimental: FIG. 2 represents differential changes in growth factor-induced actin polymerization in senescent fibroblasts. […] The cells were fixed, permeabilized, and stained with NBD-phallacidin, then photographed.
F-actin was stained as described by Shin et al. (1999). Quiescent cells grown on glass cover slips in multi-well culture plates were treated with agonists for 30 min, and the cells were fixed with 3.7% paraformaldehyde in PBS for 30 min on ice. Following permeabilization with 0.2% Triton X-100 in PBS for 15 min on ice, the cells were stained with […] NBD-phallacidin in PBS for 30 min at RT. The stained cells were washed three times with PBS for 15 min and the cover slip was mounted on a slide glass with Gelvatol, which was prepared by mixing 100 ml of 23% polyvinyl alcohol in PBS with 50 ml glycerol. The cells were then observed under a confocal fluorescence microscope.

[3] = tested on: human diploid fibroblasts; assay: growth factor-stimulated signaling events in human diploid fibroblasts; assay type: cell-based
Experimental: Foreskin fibroblasts were isolated as described by Boyce and Ham (1983). Cells were cultured in Dulbecco's modified Eagle's medium containing 10% fetal bovine serum and antibiotics. The primary culture contained smaller and more closely packed cells during the early stage of the culture. Cells with less than 10 passage were often considered as presenescent cells. As the cells were passaged, they became larger and they have a slower growth rate at passage 10-20. Cells from over 27 passages were completely growth-arrested and developed characteristic appearance designated previously as replicative senescence (Yeo et al., 2000a and b). In order to confirm that cells were senescent, we either examined the activity of beta-galactosidase or stained with X-gal, a membrane permeable substrate of the enzyme, which produces a blue insoluble product inside of the cells. The number of cells stained with X-gal increased with age and most of cells from passage 27-28 were stained. Cultures of over 23-28 passages have also shown the cessation of cell growth and senescence-like morphological changes, but only 70-80% of cells were stained with X-gal. These were termed “near-senescent”. Although the near-senescent cultures were not completely homogeneous, we compared the changes in these cultures to those in presenescent cultures of passage 6-10. In order to determine the growth factor-stimulated signaling events, cells were grown for 1-2 days to 60-70% sub-confluency in the culture medium, and then serum-starved to become quiescent by incubating with serum free medium (SFM) for 2 days. The quiescent cells were treated with various agonists, as described in the figure legends. To label cells, radioactive chemicals were added during the incubation with SFM.
Primary human diploid fibroblasts, isolated from newborn foreskins, were used to study the mechanism of reduced response to growth factor stimulation with aging. These cells were maintained and passaged as described previously (Yeo et al., 2000a). […] Compared to their presenescent counterparts, the senescent and near-senescent cells were larger and grew to lower density, as has been observed in other cell systems. Here the present inventors report upon the differential changes in the signaling events evoked by platelet-derived growth factor (PDGF) and lysophosphatidic acid (LPA). PDGF elicits signaling events over a concentration range of 10-100 ng/ml, whereas LPA stimulates the hydrolysis of phospholipids, Ca^2+ mobilization, and actin polymerization over a concentration range of 0.1-10 μg/ml in human diploid fibroblasts. In order to compare their cellular responses, we treated presenescent and senescent (or near-senescent) cells with PDGF and LPA at a maximally responsive dose of 50 ng/ml and 1 μg/ml, respectively.

[4] = tested on: phosphodiesterases (PDEs); assay: measurement of phosphodiesterase activity in LPA-treated cells; assay type: cell-based, human; conditions: 30 μg/ml LPA
Experimental: Subconfluent presenescent (passage 8, Pa 8) and near-senescent (passage 24, Pa 24) fibroblasts were serum-starved for 2 days and treated with 30 μg/ml LPA for the indicated times. The activities of adenylyl cyclase (A) and phosphodiesterase (B) were determined in the fresh membranes and total cell lysates as described in Materials and Methods. The enzyme activities were calculated as pmol/μg/min. The data represents an average of triplicate experiments.
Phosphodiesterase (PDE) assays were performed as described previously (Jang and Juhnn, 2001). 15 μg of cytosolic proteins were incubated in 200 μl of reaction mixture containing 50 mM Tris-HCl, pH 7.4, 3 mM MgCl2, 60 pmol cAMP, 1 mM 5′-AMP for 15 min at 37° C. After the reaction was stopped by adding 2.0 M perchloric acid, the amount of remaining cAMP was determined by cAMP binding assay.

lysophosphatidic acid [LPA]
PKC activation (PKC): further increase in PKC activation
cytosolic Ca2+ levels ([1]; presenescent fibroblasts (passage 7)): rapid increase
Ca2+ response in senescent cells relative to presenescent ([1]; senescent cells (passage 27)): not significantly
actin polymerization (stress fibers) ([2]; presenescent fibroblasts (passage 10)): enhanced the formation of stress fibers
agonist-induced actin polymerization in senescent cells ([2]; senescent cells (passage 27)): partially reduced
concentration range stimulating hydrolysis of phospholipids, Ca2+ mobilization and actin polymerization ([3]; human diploid fibroblasts): 0.1 to 10 µg/mL
maximally responsive dose ([3]; presenescent and senescent (or near-senescent) cells): 1 µg/mL
PDE activity ([4]; near-senescent cells): reduced
PDE activity ([4]; presenescent cells): increased
